Test results from PubChem BioAssay (NCI).
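Grown in 96-well plates, cells were treated for 48 hours with each compound at five concentrations. Insufficient inhibition: endpoint recorded as highest concentration tested. The concentration for 50% growth inhibition is given as GI50. At the TGI there is no net growth.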

Assays:
Assay in all cases: NCI-60 cell line screen, 48 h
[1] = tested on: SF-295 CNS
[2] = tested on: U251 CNS
[3] = tested on: MALME-3M melanoma
[4] = tested on: NCI-H522 lung
[5] = tested on: SK-MEL-5 melanoma
[6] = tested on: CAKI-1 renal
[7] = tested on: RPMI-8226 leukemia
[8] = tested on: CCRF-CEM leukemia
[9] = tested on: SN12C renal
[10] = tested on: A549 NSCLC
[11] = tested on: HL-60(TB) leukemia
[12] = tested on: SR leukemia
[13] = tested on: SF-539 CNS
[14] = tested on: OVCAR-8 ovarian
[15] = tested on: HCT-116 colon
[16] = tested on: IGROV1 ovarian
[17] = tested on: OVCAR-5 ovarian
[18] = tested on: NCI-H23 lung
[19] = tested on: 786-0 renal
[20] = tested on: SK-OV-3 ovarian
[21] = tested on: KM12 colon
[22] = tested on: M14 melanoma
[23] = tested on: DMS 114 small cell lung
[24] = tested on: EKVX NSCLC
[25] = tested on: SNB-19 CNS
[26] = tested on: HT29 colon
[27] = tested on: ACHN renal
[28] = tested on: NCI-H460 lung
[29] = tested on: MOLT-4 leukemia
[30] = tested on: NCI-H226 lung
[31] = tested on: OVCAR-3 ovarian
[32] = tested on: SW-620 colon
[33] = tested on: K-562 leukemia
[34] = tested on: HCT-15 colon
[35] = tested on: LOX IMVI melanoma
[36] = tested on: KM20L2 colon
[37] = tested on: SK-MEL-2 melanoma
[38] = tested on: SNB-75 CNS
[39] = tested on: HOP-62 NSCLC
[40] = tested on: SK-MEL-28 melanoma
[41] = tested on: A498 renal
[42] = tested on: M19-MEL melanoma
[43] = tested on: OVCAR-4 ovarian
[44] = tested on: SNB-78 CNS
[45] = tested on: SF-268 CNS
[46] = tested on: HCC-2998 colon
[47] = tested on: TK-10 renal
[48] = tested on: UO-31 renal
[49] = tested on: DMS 273 small cell lung
[50] = tested on: UACC-62 melanoma
[51] = tested on: UACC-257 melanoma
[52] = tested on: RXF 393 renal
[53] = tested on: DLD-1 colon
[54] = tested on: COLO 205 colon
[55] = tested on: LXFL 529 NSCLC
[56] = tested on: HOP-18 NSCLC
[57] = tested on: HOP-92 NSCLC

CSc1nc(=Nc2ccccc2)sn1-c1ccccc1
TGI [1]: 49.2 µM
TGI [2]: 33.4 µM
TGI [3]: 99.1 µM
TGI [4]: 13.2 µM
TGI [5]: 23.2 µM
TGI [6]: 35.1 µM
TGI [7]: 40.5 µM
TGI [8]: 40 µM
TGI [9]: 39 µM
TGI [10]: 44 µM
TGI [11]: 22.6 µM
TGI [12]: 81.1 µM
TGI [13]: 36.9 µM
TGI [14]: 46.3 µM
TGI [15]: 32.5 µM
TGI [16]: 40 µM
TGI [17]: 48 µM
TGI [18]: 36 µM
TGI [19]: 34.4 µM
TGI [20]: 62.2 µM
TGI [21]: 44.2 µM
TGI [22]: 22.5 µM
TGI [23]: 16.1 µM
TGI [24]: > 100 µM
TGI [25]: 56.7 µM
TGI [26]: 11.8 µM
TGI [27]: 56 µM
TGI [28]: 16.9 µM
TGI [29]: 96 µM
TGI [30]: 36.2 µM
TGI [31]: 38.5 µM
TGI [32]: 26.1 µM
TGI [33]: 30.1 µM
TGI [34]: 30.4 µM
TGI [35]: 32 µM
TGI [36]: 28.4 µM
TGI [37]: 76.9 µM
TGI [38]: 55.8 µM
TGI [39]: 31.3 µM
TGI [40]: 30.2 µM
TGI [41]: 38.7 µM
TGI [42]: 23 µM
TGI [43]: 23.6 µM
TGI [44]: 47 µM
TGI [45]: 54 µM
TGI [46]: 38.1 µM
TGI [47]: 60.5 µM
TGI [48]: 39.8 µM
TGI [49]: 22.8 µM
TGI [50]: 18 µM
TGI [51]: 43.9 µM
TGI [52]: 31.3 µM

N.N.NCCCCCCN.O=C([O-])CCl.O=C([O-])CCl.O=C([O-])CCl.O=C([O-])CCl.[Pt+4].[Pt+4]
GI50 [1]: > 50 µM
TGI [1]: > 50 µM
GI50 [2]: 25.2 µM
TGI [2]: > 50 µM
GI50 [3]: > 50 µM
TGI [3]: > 50 µM
GI50 [4]: 10.9 µM
TGI [4]: > 50 µM
GI50 [5]: > 50 µM
TGI [5]: > 50 µM
GI50 [6]: 24.7 µM
TGI [6]: > 50 µM
GI50 [7]: > 50 µM
TGI [7]: > 50 µM
GI50 [8]: 2.73 µM
TGI [8]: > 50 µM
GI50 [9]: 3.74 µM
TGI [9]: > 50 µM
GI50 [10]: > 50 µM
TGI [10]: > 50 µM
GI50 [53]: > 50 µM
TGI [53]: > 50 µM
GI50 [11]: 15.5 µM
TGI [11]: > 50 µM
GI50 [12]: 8.23 µM
TGI [12]: > 50 µM
GI50 [13]: 45.2 µM
TGI [13]: > 50 µM
GI50 [14]: > 50 µM
TGI [14]: > 50 µM
GI50 [15]: > 50 µM
TGI [15]: > 50 µM
GI50 [54]: 9.54 µM
TGI [54]: > 50 µM
GI50 [16]: > 50 µM
TGI [16]: > 50 µM
GI50 [17]: > 50 µM
TGI [17]: > 50 µM
GI50 [18]: 27.1 µM
TGI [18]: > 50 µM
GI50 [19]: > 50 µM
TGI [19]: > 50 µM
GI50 [55]: > 50 µM
TGI [55]: > 50 µM
GI50 [20]: > 50 µM
TGI [20]: > 50 µM
GI50 [21]: > 50 µM
TGI [21]: > 50 µM
GI50 [22]: > 50 µM
TGI [22]: > 50 µM
GI50 [24]: > 50 µM
TGI [24]: > 50 µM
GI50 [25]: 27.8 µM
TGI [25]: > 50 µM
GI50 [26]: 37.1 µM
TGI [26]: > 50 µM
GI50 [27]: 35.9 µM
TGI [27]: > 50 µM
GI50 [28]: 3.11 µM
TGI [28]: > 50 µM
GI50 [29]: 1.73 µM
TGI [29]: > 50 µM
GI50 [30]: 17 µM
TGI [30]: > 50 µM
GI50 [31]: > 50 µM
TGI [31]: > 50 µM
GI50 [32]: > 50 µM
TGI [32]: > 50 µM
GI50 [33]: > 50 µM
TGI [33]: > 50 µM
GI50 [34]: > 50 µM
TGI [34]: > 50 µM
GI50 [35]: > 50 µM
TGI [35]: > 50 µM
GI50 [37]: > 50 µM
TGI [37]: > 50 µM
GI50 [38]: 8.34 µM
TGI [38]: > 50 µM
GI50 [39]: 6.04 µM
TGI [39]: > 50 µM
GI50 [40]: > 50 µM
TGI [40]: > 50 µM
GI50 [41]: > 50 µM
TGI [41]: > 50 µM
GI50 [43]: > 50 µM
TGI [43]: > 50 µM
GI50 [44]: > 50 µM
TGI [44]: > 50 µM
GI50 [45]: 18.8 µM
TGI [45]: > 50 µM
GI50 [46]: > 50 µM
TGI [46]: > 50 µM
GI50 [56]: > 50 µM
TGI [56]: > 50 µM
GI50 [47]: > 50 µM
TGI [47]: > 50 µM
GI50 [48]: > 50 µM
TGI [48]: > 50 µM
GI50 [49]: > 50 µM
TGI [49]: > 50 µM
GI50 [51]: > 50 µM
TGI [51]: > 50 µM
GI50 [52]: 13.1 µM
TGI [52]: > 50 µM

CC(C1=CC=C2[C@@H]3CCC4CC(N(C)C)CC[C@]4(C)C3CC[C@]12C)N(C)C=O (some centres not stated)
TGI [1]: > 100 µM
TGI [2]: > 100 µM
TGI [3]: > 100 µM
TGI [4]: > 100 µM
TGI [5]: > 100 µM
TGI [6]: > 100 µM
TGI [7]: > 100 µM
TGI [8]: > 100 µM
TGI [9]: > 100 µM
TGI [10]: > 100 µM
TGI [53]: > 100 µM
TGI [11]: > 100 µM
TGI [13]: > 100 µM
TGI [14]: > 100 µM
TGI [15]: > 100 µM
TGI [54]: > 100 µM
TGI [16]: > 100 µM
TGI [17]: > 100 µM
TGI [18]: > 100 µM
TGI [19]: > 100 µM
TGI [55]: > 100 µM
TGI [20]: > 100 µM
TGI [21]: > 100 µM
TGI [22]: > 100 µM
TGI [23]: > 100 µM
TGI [25]: > 100 µM
TGI [26]: > 100 µM
TGI [27]: > 100 µM
TGI [57]: > 100 µM
TGI [29]: > 100 µM
TGI [31]: > 100 µM
TGI [32]: > 100 µM
TGI [33]: > 100 µM
TGI [34]: > 100 µM
TGI [35]: > 100 µM
TGI [37]: > 100 µM
TGI [38]: > 100 µM
TGI [39]: > 100 µM
TGI [40]: > 100 µM
TGI [41]: > 100 µM
TGI [42]: > 100 µM
TGI [43]: > 100 µM
TGI [45]: > 100 µM
TGI [46]: > 100 µM
TGI [56]: > 100 µM
TGI [47]: > 100 µM
TGI [48]: > 100 µM
TGI [49]: > 100 µM
TGI [50]: > 100 µM
TGI [52]: > 100 µM

Cc1nc2ccccc2c(=O)n1NC(=S)Nc1ccccc1
TGI [1]: > 100 µM
TGI [2]: > 100 µM
TGI [3]: > 100 µM
TGI [4]: > 100 µM
TGI [5]: > 100 µM
TGI [6]: > 100 µM
TGI [7]: > 100 µM
TGI [8]: > 100 µM
TGI [9]: > 100 µM
TGI [10]: > 100 µM
TGI [53]: > 100 µM
TGI [11]: > 100 µM
TGI [12]: > 100 µM
TGI [13]: > 100 µM
TGI [14]: > 100 µM
TGI [15]: > 100 µM
TGI [54]: > 100 µM
TGI [16]: > 100 µM
TGI [17]: > 100 µM
TGI [18]: > 100 µM
TGI [19]: > 100 µM
TGI [55]: > 100 µM
TGI [20]: > 100 µM
TGI [21]: > 100 µM
TGI [22]: > 100 µM
TGI [23]: > 100 µM
TGI [26]: > 100 µM
TGI [27]: > 100 µM
TGI [28]: > 100 µM
TGI [57]: > 100 µM
TGI [29]: > 100 µM
TGI [30]: > 100 µM
TGI [32]: > 100 µM
TGI [33]: > 100 µM
TGI [34]: > 100 µM
TGI [35]: > 100 µM
TGI [37]: > 100 µM
TGI [38]: > 100 µM
TGI [39]: > 100 µM
TGI [40]: > 100 µM
TGI [41]: > 100 µM
TGI [42]: > 100 µM
TGI [43]: > 100 µM
TGI [45]: > 100 µM
TGI [56]: > 100 µM
TGI [47]: > 100 µM
TGI [48]: > 100 µM
TGI [49]: > 100 µM
TGI [50]: > 100 µM
TGI [51]: > 100 µM
TGI [52]: > 100 µM
